# Reference: PMC11714206, “Massively Parallel Screening of Toll/Interleukin‐1 Receptor (TIR)‐Derived Peptides Reveals Multiple Toll‐Like Receptors (TLRs)‐Targeting Immunomodulatory Peptides” (Advanced Science, 2024)
# “And” between values parts separate entries of the source, which are not always exact repeats. Identical values can stand only once.
# Biological target: T1, MyD88^TIR (Homo sapiens, UniProt Q99836)
# T1 construct: MyD88 (residues 148–296); 6xHis; made in house; host or cells: E. coli BL21 (DE3)
# Assay: T‐Surf phage library (P8 and P3) selection against MyD88^TIR, four rounds, NGS read counts
# Assay type: binding
# Conditions: for P8_MyD88 Rank (after) / P8_MyD88 Rank (before): P8 library; for P3_MyD88 Rank (after) / P3_MyD88 Rank (before): P3 library; for Population: 4th round of selection against MyD88 TIR, share of NGS reads
# Summary of the method: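 P8 and P3 T‐Surf libraries panned against plate-coated TIR domains (5 µg mL^−1), 1 h binding at RT, acid elution and TG1/helper-phage amplification per round. After four rounds, pools were PCR-barcoded and sequenced (NovaSeq, 100 bp paired-end, Phred ≥30); peptides ranked by read counts.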
# [1] = selection against MyD88, rank by count after grouping
# [2] = selection against MyD88, rank by count before grouping
# [3] = selection against MyD88, rank after grouping
# [4] = selection against MyD88, rank before grouping
# [5] = 4R selection against MyD88, rank after grouping
# [6] = 4R selection against MyD88, rank before grouping
# [7] = P3_MyD88: rank by count after grouping
# [8] = P3_MyD88: rank by count before grouping
# [9] = P8_MyD88: rank by count after grouping
# [10] = P8_MyD88: rank by count before grouping
# [11] = P8_MyD88 pool: P8 T-Surf phage library
# [12] = P8_MyD88: rank by NGS read count after grouping
# [13] = P8_MyD88: rank by NGS read count before grouping
# [14] = selection against MyD88 TIR, rank by count after grouping
# [15] = selection against MyD88 TIR, rank by count before grouping
# [16] = P3_MyD88 pool: P3 T-Surf phage library
# T1 sequence (Q99836 148-296): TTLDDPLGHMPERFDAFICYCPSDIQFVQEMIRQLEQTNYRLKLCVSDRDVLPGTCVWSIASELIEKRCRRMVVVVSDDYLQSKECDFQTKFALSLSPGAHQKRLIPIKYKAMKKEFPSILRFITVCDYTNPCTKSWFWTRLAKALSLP
sequence,measurement,setting,value
VSHLSDSFERYGIMFF,P8_MyD88 Rank (after),[1],731
same,P8_MyD88 Rank (before),[2],2266
SSFREGMWRLMVLSKK,P3_MyD88 Rank (after),[3],562
same,P3_MyD88 Rank (before),[4],3219
LGYQGIDGEYFVGIED,P8_MyD88 Rank (after),[5],617
same,P8_MyD88 Rank (before),[6],3328
DWVWVYLLPNLEGPEG,P8_MyD88 Rank (after),[5],641
same,P8_MyD88 Rank (before),[6],2402
DHHLDLSRGKSIKPDILG,Rank (after),[7],435
same,Rank (before),[8],2053
YTALANSGCHTFRDND,Rank (after),[7],397
same,Rank (before),[8],1635
AWIREQLRTALKERPP,P3_MyD88 Rank (after),[5],595
same,P3_MyD88 Rank (before),[6],1975
NGHESEIIKEIVDTM,Rank (after),[7],436
same,Rank (before),[8],3365
NYGSSSWALEELAHIIE,P8_MyD88 Rank (after),[5],665
same,P8_MyD88 Rank (before),[6],3831
SFTDHLYAALVQAGIL,Rank (after),[9],126
same,Rank (before),[10],137
same,Population,[11],0.0123%
MFGGATLHDVLELISM,P8_MyD88 Rank (after),[3],509
same,P8_MyD88 Rank (before),[4],3654
RFWESQRYMKPNVSHT,P3_MyD88 Rank (after),[1],708
same,P3_MyD88 Rank (before),[2],2552
SSFLQGLWRLLELSKK,P3_MyD88 Rank (after),[3],534
same,P3_MyD88 Rank (before),[4],3122
YNFISQLYDALQRNRI,P3_MyD88 Rank (after),[1],710
same,P3_MyD88 Rank (before),[2],1743
LGYRWLDGEYFGGIED,Rank (after),[9],462
same,Rank (before),[10],3223
SSFREGLSRLPELSKK,P3_MyD88 Rank (after),[5],589
same,P3_MyD88 Rank (before),[6],3207
EWMREQLRPPLKERLP,Rank (after),[7],421
same,Rank (before),[8],2179
SELREVVGGAVSQLVM,P3_MyD88 Rank (after),[3],575
same,P3_MyD88 Rank (before),[4],3061
YLKWGYPWFWDRLRYAM,Rank (after),[7],97
same,Rank (before),[8],342
DWVWEYLLPNVERPEG,Rank (after),[12],880
same,Rank (before),[13],2458
DPQDLVWFYKRLFSQM,Rank (after),[12],977
same,Rank (before),[13],2720
YAFTGHLHRIWCSVA,P3_MyD88 Rank (after),[5],581
same,P3_MyD88 Rank (before),[6],1523
FFWMQLRSLLGTPGGL,P8_MyD88 Rank (after),[14],194
same,P8_MyD88 Rank (before),[15],252
SLRRNLVSNLIEEFIR,P3_MyD88 Rank (after),[5],580
same,P3_MyD88 Rank (before),[6],3076
YASRSWYLDELVHIPW,Rank (after),[12],1022
same,Rank (before),[13],1842
YNFISHLYDALRLNKIAPF,P3_MyD88 Rank (after),[5],634
same,P3_MyD88 Rank (before),[6],1728
YITRFDDIQQIELFWD,P8_MyD88 Rank (after),[1],688
same,P8_MyD88 Rank (before),[2],2121
YLKWGYPRFWDRLRCA,P3_MyD88 Rank (after),[14],216
same,P3_MyD88 Rank (before),[15],1602
SEIYATSPWALDVLVL,P3_MyD88 Rank (after),[3],508
same,P3_MyD88 Rank (before),[4],2953
LGYHWEYWVYFVGIED,Rank (after),[12],1000
same,Rank (before),[13],3237
DHHLDLPWGKAKKPEILG,P3_MyD88 Rank (after),[3],487
same,P3_MyD88 Rank (before),[4],1999
DHHLDLPRGKAIKPEILG,P8_MyD88 Rank (after),[1],757
same,P8_MyD88 Rank (before),[2],3049
EWVKNSLLQYLDSQFE,Rank (after),[9],151
same,Rank (before),[10],166
same,Population,[11],0.00886%
YTALTYSGFHTFRGND,P3_MyD88 Rank (after),[5],645
same,P3_MyD88 Rank (before),[6],1641
EWFYERLFSQMRKDIK,P8_MyD88 Rank (after),[14],275
same,P8_MyD88 Rank (before),[15],586
SPLSYMWLDELVEIME,Rank (after),[12],944
same,Rank (before),[13],3764
LVAQEISKKMKIFATI,Population,[16],0.00495% and 0.00466%
KNLFNLLGSKDIRALM,P3_MyD88 Rank (after),[3],542
same,P3_MyD88 Rank (before),[4],3781
YTALTAAANLSGW,Population,[16],0.00378%
LGYRWGDWEYFVGIEE,Rank (after),[12],1017
same,Rank (before),[13],3222
AVDKGIDKIQTPLKNA,Rank (after),[7],430
same,Rank (before),[8],1896
WALDLDWFYERLVSLF,P8_MyD88 Rank (after),[14],225
same,P8_MyD88 Rank (before),[15],426
WALVVLLQILHARELF,P8_MyD88 Rank (after),[3],490
same,P8_MyD88 Rank (before),[4],1403
NYGSNSWALNKLLEIL,P8_MyD88 Rank (after),[3],492
same,P8_MyD88 Rank (before),[4],3834
QEVEGWRDALTKVASM,P3_MyD88 Rank (after),[14],226
same,P3_MyD88 Rank (before),[15],2893
KEVKGWRDALTTVASL,P3_MyD88 Rank (after),[14],252
same,P3_MyD88 Rank (before),[15],3659
DPQDLGWFYERLVSLF,Population,[11],0.00617%
KNLLNALMSKNIRTFM,P3_MyD88 Rank (after),[5],622
same,P3_MyD88 Rank (before),[6],3789
DPQDHYLLYERLVSLF,Rank (after),[12],934
same,Rank (before),[13],2964
SSVRECLWRLLELSKK,P3_MyD88 Rank (after),[3],516
same,P3_MyD88 Rank (before),[4],3268
LTDVANILGYHWIDWE,Rank (after),[9],104
same,Rank (before),[10],110
same,Population,[11],0.02%
LKVDSWRQALEKAGNL,Rank (after),[7],117
same,Rank (before),[8],2469
DLLRHLIEAFSRMHIN,Rank (after),[12],940
same,Rank (before),[13],2389
DPRDLAWFYEVLLSRF,P8_MyD88 Rank (after),[5],657
same,P8_MyD88 Rank (before),[6],2618
DWVWDYLLPKLECPSG,P8_MyD88 Rank (after),[5],579
same,P8_MyD88 Rank (before),[6],2447
WALDELLQILNAREMF,Rank (after),[9],415
same,Rank (before),[10],1464
SSICEGLWRLLELSKK,Rank (after),[7],453
same,Rank (before),[8],3276
WALAELLKILYAKEPM,P8_MyD88 Rank (after),[1],763
same,P8_MyD88 Rank (before),[2],1399
HWIEWEYFVGIEEHIK,Rank (after),[9],397
same,Rank (before),[10],3541
LNVESWRKALEKAGKL,P3_MyD88 Rank (after),[14],230
same,P3_MyD88 Rank (before),[15],2403
DHHLDLPRGKAIKPEIL,Rank (after),[7],108
same,Rank (before),[8],953
NNLFNELVSKNIRTLM,P3_MyD88 Rank (after),[14],237
same,P3_MyD88 Rank (before),[15],3559
DPQDLEWNFERPVSLF,Rank (after),[12],972
same,Rank (before),[13],2856
EWIWDKLIYALSRNPH,P3_MyD88 Rank (after),[5],586
same,P3_MyD88 Rank (before),[6],2127
NELLHVWSSKANSLEG,P3_MyD88 Rank (after),[5],648
same,P3_MyD88 Rank (before),[6],3394
SENYATSPWALDELVP,Population,[16],0.00437%
DPQVPEWFYNRLFCQL,Rank (after),[12],959
same,Rank (before),[13],2651
DPQDLDWCYERLVSRC,Rank (after),[9],461
same,Rank (before),[10],2817
LKWGEPYCWSKLRYAM,Rank (after),[7],127
same,Rank (before),[8],2450
YASYDDNDYYWVTHVLLSR,P8_MyD88 Rank (after),[5],638
same,P8_MyD88 Rank (before),[6],1808
DHHLDLPRGKAIKPVILG,Population,[16],0.00291%
YALTCHLHRYLVQRGV,P3_MyD88 Rank (after),[14],204
same,P3_MyD88 Rank (before),[15],1552
YYDSRWALDELLKIL,P8_MyD88 Rank (after),[3],484
same,P8_MyD88 Rank (before),[4],1678
NGHESEIIKEIVDTFM,P3_MyD88 Rank (after),[14],243
same,P3_MyD88 Rank (before),[15],1232
ESILNHMRRSSQSIAN,Rank (after),[7],481
same,Rank (before),[8],2231
QLIQQWIELHLHQLH,P8_MyD88 Rank (after),[5],588
same,P8_MyD88 Rank (before),[6],3585
SSFREGLWRLQELSKT,Rank (after),[7],158
same,Rank (before),[8],3187
